Columns and labels:
HEK293NT cells = experiment: Luminescence of HEK293NT cells expressing hispidin hydroxylase and luciferase on adding hispidin; format: cell-based, human; settings: hispidin 800 μg/ml, 24 hours after transfection
Danio rerio larvae = experiment: Bioluminescence of transgenic Danio rerio larvae after hispidin injection; format: in vivo; settings: hispidin solution intravenously injected
Excerpt: Transgenic fish Danio redo, comprising gene of Neonothopanus nambi hispidin hydroxylase were created according to the technique described in [Hisano et al., Sci Rep., 2015, 5:8841]. The technique includes expression of guide RNA and Cas9 nuclease for making a breakpoint in the region homologous to the guide RNA sequence. For the purpose of development of transgenic animals there were ordered synthetic DNA fragments comprising guide RNA sequences from pX330 plasmid, Addgene #42230 and mRNA of Cas9 nuclease under control of bacteriophage polymerase T7 promoter. The obtained fragments were used for transcription in vitro by means of reagents from MAXIscript T7 kit (Life Technologies, USA), and synthesized RNA was purified by means of DNA isolation kit (Evrogen, Russia).
Coding sequence of Neonothopanus nambi hispidin hydroxylase floxed by 50-nucleotide sequences from krtt1c19e Danio rerio gene, described in [Hisano et al., Sci Rep., 2015, 5:8841], was obtained synthetically and cloned into pEGFP/C1 plasmid base comprising pUC origin and kanamycin resistance cassette.
Hispidin solution was intravenously injected into Danio rerio larvae for recording bioluminescent signal according to the technique described in [Cosentino et al., J Vis Exp. 2010; (42): 2079]. Bioluminescence was recorded by means of IVIS Spectrum In Vivo Imaging System (Perkin Elmer). […]

[1] = test system: recombinant hispidin hydroxylase from Neonothopanus nambi; experiment: HPLC analysis of hydroxylation by recombinant hispidin hydroxylase; format: biochemical; settings: 0.2 μM substrate, 1 mM NADPH, 30 minutes
Experimental: The isolated recombinant hispidin hydroxylase from Neonothopanus nambi, obtained according to Example 4, was added to reaction mixtures comprising 1 mM of NADPH and 0.2 μM of hispidin, (E)-4-hydroxy-6-styryl-2H-pyran-2-one or (E)-4-hydroxy-6-(4-hydroxystyryl)-2H-pyran-2-one in 100 μl of the buffer (0.2 M of Na-phosphate buffer, 0.5 M of Na2SO4, 0.1% dodecylmaltoside (DDM) pH 8.0). In 30 minutes, the reaction mixture was analyzed by HPLC using synthetic luciferins as standards.

[2] = test system: hispidin hydroxylase and luciferase fusion protein; experiment: Bioluminescence of HEK293T cells expressing hispidin hydroxylase and luciferase fusion protein; format: cell-based, Neonothopanus nambi; settings: 24 hours after transfection, 1 million of cells in 0.5 ml PBS; hispidin 10 μg per 1 million of cells
Excerpt: Humanized DNA sequences coding hispidin-hydroxylase and luciferase of Neonothopanus nambi, obtained according to Example 2, were operatively cross-linked to each other by flexible short peptide linker with amino acid sequence GGSGGSGGS (SEQ ID NOs:115). Nucleotide and amino acid sequences of the obtained fused protein are shown in SEQ ID NO 101 and 102. Nucleic acid coding fused protein was cloned into pEGFP-N1 vector (Clontech, USA) instead of EGFP gene under Cytomegaloviral promoter control. The obtained structure was transfected into HEK293T cells. Analogous vectors, comprising individual genes of hispidin hydroxylase and luciferase, were also co-transfected. Transfection was performed by transfection agent FuGENE HD (Promega, USA) according to the manufacturer's protocol. 24 hours after transfection 1 million of cells were resuspended in 0.5 ml of PBS, and luminescence without adding hispidin and with addition of hispidin (10 μg per 1 million of cells) was recorded by luminometer.

Structure (SMILES): O=c1cc(O)cc(/C=C/c2ccc(O)c(O)c2)o1 [hispidin, (E)-6-(3,4-dihydroxystyryl)-4-hydroxy-2H-pyran-2-one]
- luminescence intensity exceeding the signal from untransfected control cells (HEK293NT cells): more than by two orders of magnitude
- bioluminescence intensity exceeding the signal from wild-type fish (Danio rerio larvae): minimum by two orders of magnitude
- HPLC detection of hydroxylated product [1]: occurrence of peaks corresponding to 3d position hydroxylated derivatives
- cell luminescence on addition [2]: caused cell luminescence in green spectrum

— US20240117385A1, “ENZYMES OF LUCIFERIN BIOSYNTHESIS AND USE THEREOF” (LIGHT BIO, INC., priority 2018, published 2024)
